Experimental data: article PMC11742080, “Decavanadate Compound Displays In Vitro and In Vivo Antitumor Effect on Melanoma Models” (Bioinorganic Chemistry and Applications, 2025)
pIC50: −log10 of the molar value.

Legend:
[1] = test system: SKMEL28 human melanoma cells; assay: MTT cell viability assay, SKMEL28; format: cell-based
Protocol: The MTT assay was first described as a sensitive, quantitative, and reliable colorimetric assay to measure the viability, proliferation, and activation of cells. Cell viability was assessed at 24 and 72 h of treatment to evaluate cytotoxicity and the effect on cell proliferation of the decavanadate compound, respectively. The concentrations of the decavanadate compound have been determined by weighing the compound in its crystal form and then solubilizing it in distilled water.
All cell lines were seeded in 96-well plates (Nunc, Roskilde, Denmark) at a density of 10^4 cells per well and were incubated overnight, before treatment with different concentrations of the decavanadate compound. After 24 or 72 h of treatment, fresh media solution containing MTT at 0.5 mg/mL was added to cells and incubated for 3 h at 37°C. The formed formazan crystals were then dissolved in DMSO, and the absorbance was measured at 560 nm using a BioTek EON Microplate Spectrophotometer (Fisher Scientific). Cell viability was expressed as a percentage of the viable cell number of the untreated cells (control [CTR]).
The concentration of the decavanadate compound required for 50% growth inhibition (IC50 value) was estimated as resulting in a 50% decrease in absorbance, compared to the CTR.

[2] = test system: IGR39 human melanoma cells; assay: Cell adhesion assay (collagen, fibronectin, poly-L-lysine); format: cell-based
Protocol: Adhesion assays were performed as previously described by Morjen et al.. Briefly, flat-bottom 96-well microtiter plates were coated for 2 h at 37°C with fibronectin or collagen at 10 μg/mL, as extracellular matrix (ECM) proteins, or poly-L-lysine at 50 μg/mL, as a nonspecific attachment substrate. Plates were then washed with PBS and blocked by BSA. IGR39 cells were harvested and resuspended in DMEM, in the presence or absence (CTR) of the tested molecule. After incubation for 30 min at room temperature, cells were added to coated wells in a volume of 50 μL (50,000 cells) and allowed to adhere to the substrate for 1 h at 37°C. Unattached cells were removed by gently washing three times with an adhesion buffer. Residual attached cells were fixed by 1% glutaraldehyde, stained by 0.1% crystal violet, and lysed with 1% SDS. The absorbance was then measured at 600 nm by a microplate reader.

[3] = test system: IGR39 human melanoma cells; assay: Wound healing (scratch) cell migration assay; format: cell-based; conditions: 24 h treatment
Protocol: Wound healing (or scratch) assay is a method to measure two-dimensional cell migration. An artificial gap is generated on a confluent cell monolayer, and the movement is tracked via microscopy or other imaging. Melanoma cells were seeded in 24-well plates at 15 × 10^4 cells per well and incubated for 24–48 h. After cells reached 90% confluence, wounds were generated using a 10 μL micropipette tip. Media were removed, and the cells were washed with 500 μL PBS and then incubated in a fresh medium containing different concentrations (not showing cytotoxic effect) of the decavanadate compound. After 24 h of treatment, cells were washed with PBS, fixed with cold ethanol, and stained with Giemsa. Images were acquired on an inverted microscope at T0 and after 24 h (T24). The percentage of cell migration was calculated using the following formula: cell migration(%)=[(T0 − T24))/(T0)] × 100 where T0 is the wound area at zero time and T24 is the wound area after 24 h. All the pictures were taken with a DM-IRE microscope (Leica, Rueil-Malmaison, France) coupled with a digital camera (CCD camera CoolSNAP FX, Princeton Instruments, Trenton, NJ).

[4] = test system: B16-F10 allografted C57BL/6 mice; assay: B16-F10 melanoma allograft model in mice; format: in vivo
Protocol: The syngeneic transplantation model of melanoma, developed in this study, has been widely used for preclinical testing and offers the advantages of relative ease of use, fast turnaround time, and low cost. A total of 30 male C57BL/6 strain mice were previously adapted to animal facility conditions. The design of the experiment was performed as represented in Figure S2. At the start of the experiment, the backs of the mice were shaved. The mice were divided into four groups: • i. CTR− group: negative CTR group containing 6 mice. This group was injected with a solution of PBS by the subcutaneous route in the dorsal region. • ii. CTR+ group: positive CTR group containing 8 mice. In this group, the mice were subcutaneously injected once with 10^5 B16-F10 cells in the dorsal region at the beginning of the experiment. Four mice were sacrificed after 21 days, and the other 4 mice were sacrificed at the end of the experiment after 31 days. • iii. Cotreatment (CT) group: CT group containing 8 mice. This group was subcutaneously injected with 10^5 B16-F10 cells in the dorsal region and injected simultaneously with 2.5 mg/kg of decavanadate (Mg2Na2V10O28·20H2O), subcutaneously for 21 days of the experiment. All the mice were sacrificed after 21 days. • iv. Post-treatment (PT) group: PT group containing 8 mice. This group was subcutaneously injected with 10^5 B16-F10 cells in the dorsal region. After 21 days, each mouse of this group received a dose of 2.5 mg/kg of decavanadate (Mg2Na2V10O28·20H2O), as a treatment for 10 days. For this group, animals were sacrificed on the 31st day. The experimental design scheme is illustrated in Figure S2.

Substance: dimagnesium disodium decavanadate icosahydrate [Mg2Na2V10O28·20H2O]
- pIC50 ([1]; SKMEL28, 24 h treatment): 4.97
- pIC50 ([1]; SKMEL28, 72 h treatment): 5.39
- Inhibition of adhesion of IGR39 cells on fibronectin ([2]; 5 μg/mL): 47%
- IC50, IGR39 cell attachment to collagen ([2]; collagen 10 μg/mL coating, 30 min pretreatment, 1 h adhesion): 3.78 µg/mL
- pIC50 ([2]; collagen 10 μg/mL coating, 30 min pretreatment, 1 h adhesion, read-out: IC50, IGR39 cell attachment to collagen): 5.57
- Reduction of IGR39 cell attachment to collagen ([2]; highest concentration 5 μg/mL (3.5 μM)): 60%
- Effect on adhesion of IGR39 cells to poly-L-lysine ([2]; up to 5 μg/mL, nonspecific substrate): no effect
- pIC50 [3]: 5.65
- IC50, IGR39 cell migration [3]: 3.16 µg/mL
- Inhibition of tumor development ([4]; 2.5 mg/kg (50 μg), versus nontreated allografted mice): 70%
- Behavior of allografted mice ([4]; cotreated, 2.5 mg/kg, compared to CTR− group): no change in the behavior
- Tumor appearance at day 21 ([4]; cotreatment (CT) group, 2.5 mg/kg s.c. for 21 days): no skin changes
- Skin histology, cotreated mice ([4]; cotreatment (CT) group, 2.5 mg/kg, day 21): disappearance of melanoma
- Average size of the tumor ([4]; post-treatment (PT) group, 2.5 mg/kg for 10 days from day 21, day 31): 8.2 mm
- Skin histology, post-treated mice ([4]; post-treatment (PT) group, 2.5 mg/kg, day 31): appearance of dermal melanoma associated with invasive nests of atypical discohesive melanocytes and dusty pigmentation
